Reference: patent US20240254115A1 (ACONDICIONAMIENTO TARRASENSE, priority 2021, published 2024)

Assays:
[1] = molecular target: T1, human σ2/TMEM97 receptor (Homo sapiens, UniProt Q5BJF2); test: Binding assay to human σ2/TMEM97 receptor; details: transfected HEK-293 membranes, 10 nM [3H]-DTG, 25° C. 120 minutes; + may also stand for 1-50% inhibition at 1 or 10 μM; read-out: Binding σ-2 Ki
T1 construct: expressed in transfected cells; host or cells: HEK-293
Protocol: Binding Assay to Human σ2/TMEM97 Receptor
Transfected HEK-293 membranes (15 μg) were incubated with 10 nM [^3H]-1,3-Di-o-tolylguanidine (DTG) in assay buffer containing Tris-HCl 50 mM at pH 8.0. NSB (non-specific binding) was measured by adding 10 μM haloperidol. The binding of the test compound was measured at either one concentration (% inhibition at 1 or 10 μM) or five different concentrations to determine affinity values (Ki). Plates were incubated at 25° C. for 120 minutes. After the incubation period, the reaction mix was transferred to MultiScreen HTS, FC plates (Millipore), filtered and washed 3 times with ice-cold 10 mM Tris-HCL (pH 8.0). Filters were dried and counted at approximately 40% efficiency in a MicroBeta scintillation counter (Perkin-Elmer) using EcoScint liquid scintillation cocktail.

[2] = molecular target: T2, human σ1 receptor (Homo sapiens, UniProt Q99720); test: Human σ1 receptor radioligand assay; details: transfected HEK-293 membranes, 5 nM [3H](+)-pentazocine, 37° C. 120 minutes; + may also stand for 1-50% inhibition at 1 or 10 μM; read-out: Binding σ-1 Ki
T2 construct: expressed in transfected cells; host or cells: HEK-293
Protocol: Human σ1 Receptor Radioligand Assay
Transfected HEK-293 membranes (7 μg) were incubated with 5 nM of [^3H](+)-pentazocine in assay buffer containing Tris-HCl 50 mM at pH 8. NBS (non-specific binding) was measured by adding 10 μM haloperidol. The binding of the test compound was measured at either one concentration (% inhibition at 1 or 10 μM) or five different concentrations to determine affinity values (Ki). Plates were incubated at 37° C. for 120 minutes. After the incubation period, the reaction mix was then transferred to MultiScreen HTS, FC plates (Millipore), filtered and plates were washed 3 times with ice-cold 10 mM Tris-HCL (pH7.4). Filters were dried and counted at approximately 40% efficiency in a MicroBeta scintillation counter (Perkin-Elmer) using EcoScint liquid scintillation cocktail.

T2 sequence (Q99720 whole entry): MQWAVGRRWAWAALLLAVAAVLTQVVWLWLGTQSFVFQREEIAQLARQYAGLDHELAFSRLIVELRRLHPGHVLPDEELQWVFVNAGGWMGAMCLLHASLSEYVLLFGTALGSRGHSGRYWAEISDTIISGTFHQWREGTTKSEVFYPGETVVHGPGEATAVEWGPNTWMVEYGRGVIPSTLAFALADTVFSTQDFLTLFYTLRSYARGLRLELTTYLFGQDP
T1 sequence (Q5BJF2 whole entry): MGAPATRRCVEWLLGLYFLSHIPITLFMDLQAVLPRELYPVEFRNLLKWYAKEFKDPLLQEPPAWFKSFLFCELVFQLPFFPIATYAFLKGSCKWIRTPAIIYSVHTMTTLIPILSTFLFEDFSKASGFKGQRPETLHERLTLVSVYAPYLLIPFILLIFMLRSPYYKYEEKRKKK

SMILES | Ki [1] [nM] | Ki [2] [nM]
CN(Cc1ccc(F)cc1)[C@H]1CC[C@H](NS(=O)(=O)c2ccc(N3CCOCC3)nc2)CC1 [Example 28, N-((1r,4r)-4-((4-Fluorobenzyl)(methyl)amino)cyclohexyl)-6-morpholinopyridine-3-sulfonamide] | < 100 | > 1000
CC(C)(C)CCN1CCC2(CC1)CCN(S(=O)(=O)c1ccc(N3CCOCC3)nc1)CC2 [Example 29, 4-(5-((9-(3,3-Dimethylbutyl)-3,9-diazaspiro[5.5]undecan-3-yl)sulfonyl)pyridin-2-yl)morpholine] | < 100 | 100 to 500
CN(C)c1ccc(S(=O)(=O)N[C@H]2CC[C@H](N(C)Cc3ccccc3)CC2)cn1 [Example 30, N-((1r,4r)-4-(Benzyl (methyl)amino)cyclohexyl)-6-(dimethylamino) pyridine-3-sulfonamide] | 100 to 500 | 500 to 1000
COc1ccc(CNC[C@@H]2CCCN(S(=O)(=O)c3ccc(N4CCOCC4)nc3)C2)cn1 [Example 34, (S)-1-(6-Methoxypyridin-3-yl)-N-((1-((6-morpholinopyridin-3-yl)sulfonyl)piperidin-3-yl)methyl) methanamine] | < 100 | 500 to 1000
O=S(=O)(N[C@@H]1CCN(Cc2ccc(F)cc2)C1)c1ccc(N2CCOCC2)nc1 [Example 36, (R)-N-(1-(4-Fluorobenzyl)pyrrolidin-3-yl)-6-morpholinopyridine-3-sulfonamide] | > 1000 | < 100
N#Cc1ccc(CN2CC[C@@H](NS(=O)(=O)c3ccc(N4CCOCC4)nc3)C2)cc1 [Example 37, (R)-N-(1-(4-Cyanobenzyl)pyrrolidin-3-yl)-6-morpholinopyridine-3-sulfonamide] | > 1000 | < 100
O=S(=O)(N[C@H]1CCN(Cc2ccc(F)cc2)C1)c1ccc(N2CCOCC2)nc1 [Example 41, (S)-N-(1-(4-Fluorobenzyl)pyrrolidin-3-yl)-6-morpholinopyridine-3-sulfonamide] | > 1000 | < 100
O=S(=O)(NC1CN(Cc2ccccc2)C1)c1ccc(N2CCOCC2)nc1 [Example 43, N-(1-Benzylazetidin-3-yl)-6-morpholinopyridine-3-sulfonamide] | > 1000 | < 100
O=S(=O)(c1ccc(N2CCOCC2)nc1)N1CCC2(CC1)CN(Cc1ccccc1)C2 [Example 47, 4-(5-((2-Benzyl-2,7-diazaspiro[3.5]nonan-7-yl)sulfonyl)pyridin-2-yl)morpholine] | 100 to 500 | > 1000
N#Cc1cccc(CN2CCC3(CC2)CCN(S(=O)(=O)c2ccc(N4CCOCC4)nc2)CC3)c1 [Example 48, 3-((9-((6-Morpholinopyridin-3-yl)sulfonyl)-3,9-diazaspiro[5.5]undecan-3-yl)methyl)benzonitrile] | < 100 | > 1000
O=S(=O)(N[C@H]1CC[C@H](NCc2ccccc2)CC1)c1ccc(N2CCOCC2)nc1 [Example 51, N-((1 r,4r)-4-(Benzylamino)cyclohexyl)-6-morpholinopyridine-3-sulfonamide] | 100 to 500 | > 1000
O=S(=O)(N[C@H]1CC[C@H](NCc2cccc(F)c2)CC1)c1ccc(N2CCOCC2)nc1 [Example 54, N-((1r,4r)-4-((3-Fluorobenzyl)amino)cyclohexyl)-6-morpholinopyridine-3-sulfonamide] | 100 to 500 | 100 to 500
CN(Cc1ccccc1F)[C@H]1CC[C@H](NS(=O)(=O)c2ccc(N3CCOCC3)nc2)CC1 [Example 56, N-((1r,4r)-4-((2-Fluorobenzyl)(methyl)amino)cyclohexyl)-6-morpholinopyridine-3-sulfonamide] | < 100 | > 1000

Next, values leading:

Ki [1] [nM] | Ki [2] [nM] | SMILES
< 100 | < 100 | CN(Cc1ccccc1)[C@H]1CC[C@H](NS(=O)(=O)c2ccc(N3CCC4(CCOC4)CC3)nc2)CC1 [Example 31]
< 100 | 100 to 500 | CN(Cc1ccccc1)[C@H]1CC[C@H](NS(=O)(=O)c2ccc(N3CCCOCC3)nc2)CC1 [Example 32, N-((1r,4r)-4-(Benzyl(methyl)amino)cyclohexyl)-6-(1,4-oxazepan-4-yl) pyridine-3-sulfonamide]
< 100 | > 1000 | COc1ccc(CNC[C@H]2CCCN(S(=O)(=O)c3ccc(N4CCOCC4)nc3)C2)cn1 [Example 33, (R)-1-(6-Methoxypyridin-3-yl)-N-((1-((6-morpholinopyridin-3-yl)sulfonyl)piperidin-3-yl)methyl) methanamine]
> 1000 | < 100 | O=S(=O)(N[C@H]1CCN(Cc2cccc(F)c2)C1)c1ccc(N2CCOCC2)nc1 [Example 35, (S)—N-(1-(3-Fluorobenzyl)pyrrolidin-3-yl)-6-morpholinopyridine-3-sulfonamide]
> 1000 | < 100 | O=S(=O)(N[C@@H]1CCN(Cc2cccc(F)c2)C1)c1ccc(N2CCOCC2)nc1 [Example 38, (R)-N-(1-(3-Fluorobenzyl)pyrrolidin-3-yl)-6-morpholinopyridine-3-sulfonamide]
> 1000 | < 100 | N#Cc1ccc(CN2CC[C@H](NS(=O)(=O)c3ccc(N4CCOCC4)nc3)C2)cc1 [Example 39, (S)-N-(1-(4-Cyanobenzyl)pyrrolidin-3-yl)-6-morpholinopyridine-3-sulfonamide]
> 1000 | 100 to 500 | N#Cc1cccc(CN2CC[C@@H](NS(=O)(=O)c3ccc(N4CCOCC4)nc3)C2)c1 [Example 40, (R)-N-(1-(3-Cyanobenzyl)pyrrolidin-3-yl)-6-morpholinopyridine-3-sulfonamide]
> 1000 | 500 to 1000 | N#Cc1cccc(CN2CC[C@H](NS(=O)(=O)c3ccc(N4CCOCC4)nc3)C2)c1 [Example 42, (S)-N-(1-(3-Cyanobenzyl)pyrrolidin-3-yl)-6-morpholinopyridine-3-sulfonamide]
> 1000 | 500 to 1000 | O=S(=O)(N[C@@H]1CCN(Cc2ccc(C(F)(F)F)nc2)C1)c1ccc(N2CCOCC2)nc1 [Example 44, (R)-6-Morpholino-N-(1-((6-(trifluoromethyl)pyridin-3-yl)methyl)pyrrolidin-3-yl)pyridine-3-sulfonamide]
100 to 500 | 500 to 1000 | O=S(=O)(c1ccc(N2CCOCC2)nc1)N1CCC2(CCN(Cc3ccccc3)CC2)C1 [Example 45, 4-(5-((8-Benzyl-2,8-diazaspiro[4.5]decan-2-yl)sulfonyl)pyridin-2-yl)morpholine]
100 to 500 | > 1000 | O=S(=O)(NC1CC2(CCN(Cc3ccccc3)CC2)C1)c1ccc(N2CCOCC2)nc1 [Example 46, N-(7-Benzyl-7-azaspiro[3.5]nonan-2-yl)-6-morpholinopyridine-3-sulfonamide]
> 1000 | > 1000 | CC(C)N([C@@H]1CCN(Cc2ccc(C#N)cc2)C1)S(=O)(=O)c1ccc(N2CCOCC2)nc1 [Example 49, (R)—N-(1-(4-Cyanobenzyl)pyrrolidin-3-yl)-N-isopropyl-6-morpholinopyridine-3-sulfonamide]
> 1000 | 500 to 1000 | CC(C)N([C@H]1CCN(Cc2ccc(C#N)cc2)C1)S(=O)(=O)c1ccc(N2CCOCC2)nc1 [Example 50, (S)-N-(1-(4-Cyanobenzyl)pyrrolidin-3-yl)-N-isopropyl-6-morpholinopyridine-3-sulfonamide]
100 to 500 | > 1000 | N#Cc1cc(CN[C@H]2CC[C@H](NS(=O)(=O)c3ccc(N4CCOCC4)nc3)CC2)ccc1F [Example 52, N-((1r,4r)-4-((3-Cyano-4-fluorobenzyl)amino)cyclohexyl)-6-morpholinopyridine-3-sulfonamide]
100 to 500 | > 1000 | O=S(=O)(N[C@H]1CC[C@H](NCc2ccccc2F)CC1)c1ccc(N2CCOCC2)nc1 [Example 53, N-((1r,4r)-4-((2-Fluorobenzyl)amino)cyclohexyl)-6-morpholinopyridine-3-sulfonamide]
> 1000 | > 1000 | O=S(=O)(N[C@H]1CC[C@H](NCc2ccncc2)CC1)c1ccc(N2CCOCC2)nc1 [Example 55, 6-Morpholino-N-((1r,4r)-4-((pyridin-4-ylmethyl)amino)cyclohexyl)pyridine-3-sulfonamide]
< 100 | > 1000 | CN(Cc1cccc(F)c1)[C@H]1CC[C@H](NS(=O)(=O)c2ccc(N3CCOCC3)nc2)CC1 [Example 57, N-((1r,4r)-4-((3-Fluorobenzyl) (methyl)amino)cyclo-hexyl)-6-morpholinopyridine-3-sulfonamide]
< 100 | > 1000 | CN(Cc1ccc(F)c(C#N)c1)[C@H]1CC[C@H](NS(=O)(=O)c2ccc(N3CCOCC3)nc2)CC1 [Example 58, N-((1r,4r)-4-((3-Cyano-4-Fluorobenzyl)(methyl)amino)cyclo-hexyl)-6-morpholinopyridine-3-sulfonamide]
